Patent US20250114374A1, “BCL-2 INHIBITORS” (Newave Pharmaceutical Inc., priority 2021, published 2025)
Like-named read-outs stand apart in the source and are kept apart here.

System: RS4; 11 with G101V mutation
Test: In vitro anti-proliferation assay (ATPlite luminescence) in BCL-2-dependent ALL cell line RS4;11 with G101V mutation
Type: cell-based
Details: read-out: RS411-G101V IC50
Method in brief: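 IC50 came from luminescent ATP quantification (ATPlite) following cell lysis. Compound dose ranges were applied for roughly 72 h to about 1×10^4 G101V-mutant RS4;11 cells per well, in 10% FBS medium.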

[1] = cellular anti-proliferative IC50, about 72 hours, medium with 10% FBS, ATPlite

SMILES	IC50 [1] [nM]	IC50 (Homo sapiens, RS4-11, 72 h) [nM]
Cc1ccccc1[C@@H]1CN(Cc2ccc(F)c(F)c2)CCN1C1CC2(CCN(c3ccc(C(=O)NS(=O)(=O)c4cc5c(c([N+](=O)[O-])c4)N[C@H](C4CCOCC4)CO5)c(N4c5cc6cc[nH]c6nc5O[C@H]5COCC[C@@H]54)c3)CC2)C1 [Example 168, 4-{2-[(2R)-4-[(3,4-difluorophenyl)methyl]-2-(2-methylphenyl)piperazin-1-yl]-7-azaspiro[3.5]nonan-7-yl}-2-[(3R,8S)-2,5-dioxa-9,15,17-triazatetracyclo[8.7.0.0^{3,8}.0^{12,16}]heptadeca-1(10),11,13,16-tetraen-9-yl]-N-[(3R)-5-nitro-3-(oxan-4-yl)-3,4-dihydro-2H-1,4-benzoxazin-7-ylsulfonyl]benzamide]	64.3	–
COc1cc(CN2CCN(C3CC4(CCN(c5ccc(C(=O)NS(=O)(=O)c6cc7c(c([N+](=O)[O-])c6)N[C@H](C6CCOCC6)CO7)c(N6c7cc8cc[nH]c8nc7O[C@H]7COCC[C@@H]76)c5)CC4)C3)[C@H](c3ccccc3OC(C)C)C2)cnc1N1CCOC[C@@H]1C [Example 169, 2-[(3R,8S)-2,5-dioxa-9,15,17-triazatetracyclo[8.7.0.0^{3,8}.0^{12,16}]heptadeca-1(10),11,13,16-tetraen-9-yl]-4-{2-[(2R)-2-(2-isopropoxyphenyl)-4-({5-methoxy-6-[(3S)-3-methylmorpholin-4-yl]pyridin-3-yl}methyl)piperazin-1-yl]-7-azaspiro[3.5]nonan-7-yl}-N-[(3R)-5-nitro-3-(oxan-4-yl)-3,4-dihydro-2H-1,4-benzoxazin-7-ylsulfonyl]benzamide]	3.82	–
Cc1ccccc1[C@@H]1CN([C@H]2CCOc3cc(F)c(F)cc32)CCN1C1CC2(CCN(c3ccc(C(=O)NS(=O)(=O)c4cc5c(c([N+](=O)[O-])c4)N[C@H](C4CCOCC4)CO5)c(N4c5cc6cc[nH]c6nc5O[C@H]5COCC[C@@H]54)c3)CC2)C1 [Example 170, 4-{2-[(2R)-4-[(4S)-6,7-difluoro-3,4-dihydro-2H-1-benzopyran-4-yl]-2-(2-methylphenyl)piperazin-1-yl]-7-azaspiro[3.5]nonan-7-yl}-2-[(3R,8S)-2,5-dioxa-9,15,17-triazatetracyclo[8.7.0.0^{3,8}.0^{12,16}]heptadeca-1(10),11,13,16-tetraen-9-yl]-N-[(3R)-5-nitro-3-(oxan-4-yl)-3,4-dihydro-2H-1,4-benzoxazin-7-ylsulfonyl]benzamide]	205	–
Cc1ccccc1[C@@H]1CN([C@@H]2CCOc3cc(F)c(F)cc32)CCN1C1CC2(CCN(c3ccc(C(=O)NS(=O)(=O)c4cc5c(c([N+](=O)[O-])c4)N[C@H](C4CCOCC4)CO5)c(N4c5cc6cc[nH]c6nc5O[C@H]5COCC[C@@H]54)c3)CC2)C1 [Example 171, 4-{2-[(2R)-4-[(4R)-6,7-difluoro-3,4-dihydro-2H-1-benzopyran-4-yl]-2-(2-methylphenyl)piperazin-1-yl]-7-azaspiro[3.5]nonan-7-yl}-2-[(3R,8S)-2,5-dioxa-9,15,17-triazatetracyclo[8.7.0.0^{3,8}.0^{12,16}]heptadeca-1(10),11,13,16-tetraen-9-yl]-N-[(3R)-5-nitro-3-(oxan-4-yl)-3,4-dihydro-2H-1,4-benzoxazin-7-ylsulfonyl]benzamide]	220	–
COc1cc(CN2CCN(C3CC4(CCN(c5ccc(C(=O)NS(=O)(=O)c6cc7c(c([N+](=O)[O-])c6)N[C@H](C6CCOCC6)CO7)c(N6c7cc8cc[nH]c8nc7O[C@H]7COCC[C@@H]76)c5)CC4)C3)[C@H](c3ccccc3C(C)C)C2)cnc1N1CCOC[C@@H]1C [Example 172, 2-[(3R,8S)-2,5-dioxa-9,15,17-triazatetracyclo[8.7.0.0^{3,8}.0^{12,16}]heptadeca-1(10),11,13,16-tetraen-9-yl]-4-{2-[(2R)-2-(2-isopropylphenyl)-4-({5-methoxy-6-[(3S)-3-methylmorpholin-4-yl]pyridin-3-yl}methyl)piperazin-1-yl]-7-azaspiro[3.5]nonan-7-yl}-N-[(3R)-5-nitro-3-(oxan-4-yl)-3,4-dihydro-2H-1,4-benzoxazin-7-ylsulfonyl]benzamide]	1.4	–
COc1cc(CN2CCN(C3CC4(CCN(c5ccc(C(=O)NS(=O)(=O)c6cc7c(c([N+](=O)[O-])c6)N[C@H](C6CCOCC6)CO7)c(N6c7cc8cc[nH]c8nc7O[C@H]7COCC[C@@H]76)c5)CC4)C3)[C@H](c3ccccc3C(C)C)C2)cnc1OC [Example 173, 4-{2-[(2R)-4-[(5,6-dimethoxypyridin-3-yl)methyl]-2-(2-isopropylphenyl)piperazin-1-yl]-7-azaspiro[3.5]nonan-7-yl}-2-[(3R,8S)-2,5-dioxa-9,15,17-triazatetracyclo[8.7.0.0^{3,8}.0^{12,16}]heptadeca-1(10),11,13,16-tetraen-9-yl]-N-[(3R)-5-nitro-3-(oxan-4-yl)-3,4-dihydro-2H-1,4-benzoxazin-7-ylsulfonyl]benzamide]	1	–
CC(C)Oc1ccccc1[C@@H]1CN([C@@H]2CCCOC2)CCN1C1CC2(CCN(c3ccc(C(=O)NS(=O)(=O)c4cc5c(c([N+](=O)[O-])c4)N[C@H](C4CCOCC4)CO5)c(N4c5cc6cc[nH]c6nc5O[C@H]5COCC[C@@H]54)c3)CC2)C1 [Example 174, 4-(2-((R)-2-(2-isopropoxyphenyl)-4-((R)-tetrahydro-2H-pyran-3-yl)piperazin-1-yl)-7-azaspiro[3.5]nonan-7-yl)-N-(((R)-5-nitro-3-(tetrahydro-2H-pyran-4-yl)-3,4-dihydro-2H-benzo[b][1,4]oxazin-7-yl)sulfonyl)-2-((5aS,9aR)-6,7,9,9a-tetrahydro-1H-pyrano[3,4-b]pyrrolo[3′,2′:5,6]pyrido[3,2-e][1,4]oxazin-5(5aH)-yl)benzamide]	–	46.5
CC(C)Oc1ccccc1[C@@H]1CN([C@H]2CCCOC2)CCN1C1CC2(CCN(c3ccc(C(=O)NS(=O)(=O)c4cc5c(c([N+](=O)[O-])c4)N[C@H](C4CCOCC4)CO5)c(N4c5cc6cc[nH]c6nc5O[C@H]5COCC[C@@H]54)c3)CC2)C1 [Example 175, 4-(2-((R)-2-(2-isopropoxyphenyl)-4-((S)-tetrahydro-2H-pyran-3-yl)piperazin-1-yl)-7-azaspiro[3.5]nonan-7-yl)-N-(((R)-5-nitro-3-(tetrahydro-2H-pyran-4-yl)-3,4-dihydro-2H-benzo[b][1,4]oxazin-7-yl)sulfonyl)-2-((5aS,9aR)-6,7,9,9a-tetrahydro-1H-pyrano[3,4-b]pyrrolo[3′,2′:5,6]pyrido[3,2-e][1,4]oxazin-5(5aH)-yl)benzamide]	–	67.2
CC(C)Oc1ccccc1[C@@H]1CN(CC2CCOCC2)CCN1C1CC2(CCN(c3ccc(C(=O)NS(=O)(=O)c4cc5c(c([N+](=O)[O-])c4)N[C@H](C4CCOCC4)CO5)c(N4c5cc6cc[nH]c6nc5O[C@H]5COCC[C@@H]54)c3)CC2)C1 [Example 176, 4-(2-((R)-2-(2-isopropoxyphenyl)-4-((tetrahydro-2H-pyran-4-yl)methyl)piperazin-1-yl)-7-azaspiro[3.5]nonan-7-yl)-N-(((R)-5-nitro-3-(tetrahydro-2H-pyran-4-yl)-3,4-dihydro-2H-benzo[b][1,4]oxazin-7-yl)sulfonyl)-2-((5aS,9aR)-6,7,9,9a-tetrahydro-1H-pyrano[3,4-b]pyrrolo[3′,2′:5,6]pyrido[3,2-e][1,4]oxazin-5(5aH)-yl)benzamide]	–	22.2
COc1cc(CN2CCN(C3CC4(CCN(c5ccc(C(=O)NS(=O)(=O)c6cc7c(c([N+](=O)[O-])c6)N[C@H](C6CCOCC6)CO7)c(N6c7cc8cc[nH]c8nc7O[C@H]7COCC[C@@H]76)c5)CC4)C3)[C@H](c3ccccc3OC(C)C)C2)cnc1OC [Example 177, 4-(2-((R)-4-((5,6-dimethoxypyridin-3-yl)methyl)-2-(2-isopropoxyphenyl)piperazin-1-yl)-7-azaspiro[3.5]nonan-7-yl)-N-(((R)-5-nitro-3-(tetrahydro-2H-pyran-4-yl)-3,4-dihydro-2H-benzo[b][1,4]oxazin-7-yl)sulfonyl)-2-((5aS,9aR)-6,7,9,9a-tetrahydro-1H-pyrano[3,4-b]pyrrolo[3′,2′:5,6]pyrido[3,2-e][1,4]oxazin-5(5aH)-yl)benzamide]	–	4
Cc1ccccc1[C@@H]1CN([C@@H]2CCCOC2)CCN1C1CC2(CCN(c3ccc(C(=O)NS(=O)(=O)c4cc5c(c([N+](=O)[O-])c4)N[C@H](C4CCOCC4)CO5)c(N4c5cc6cc[nH]c6nc5O[C@H]5COCC[C@@H]54)c3)CC2)C1 [Example 178, N—(((R)-5-nitro-3-(tetrahydro-2H-pyran-4-yl)-3,4-dihydro-2H-benzo[b][1,4]oxazin-7-yl)sulfonyl)-2-((5aS,9aR)-6,7,9,9a-tetrahydro-1H-pyrano[3,4-b]pyrrolo[3′,2′:5,6]pyrido[3,2-e][1,4]oxazin-5(5aH)-yl)-4-(2-((R)-4-((R)-tetrahydro-2H-pyran-3-yl)-2-(o-tolyl)piperazin-1-yl)-7-azaspiro[3.5]nonan-7-yl)benzamide]	–	40.9
Cc1ccccc1[C@@H]1CN([C@H]2CCCOC2)CCN1C1CC2(CCN(c3ccc(C(=O)NS(=O)(=O)c4cc5c(c([N+](=O)[O-])c4)N[C@H](C4CCOCC4)CO5)c(N4c5cc6cc[nH]c6nc5O[C@H]5COCC[C@@H]54)c3)CC2)C1 [Example 179, N—(((R)-5-nitro-3-(tetrahydro-2H-pyran-4-yl)-3,4-dihydro-2H-benzo[b][1,4]oxazin-7-yl)sulfonyl)-2-((5aS,9aR)-6,7,9,9a-tetrahydro-1H-pyrano[3,4-b]pyrrolo[3′,2′:5,6]pyrido[3,2-e][1,4]oxazin-5(5aH)-yl)-4-(2-((R)-4-((S)-tetrahydro-2H-pyran-3-yl)-2-(o-tolyl)piperazin-1-yl)-7-azaspiro[3.5]nonan-7-yl)benzamide]	–	31.2
